# Activity calls are given as the source filed them. The calls are words filed in the database; no cut-off is given here.
# Legend:
# HGC-27 [1] = experiment: Induction of apoptosis in human HGC-27 cells assessed as increase in apoptotic cells at 2 to 16 uM after 48 hr by AnnexinV-FITC/PI staining based flow cytometric analysis (reference value: 5.03%); format: functional, cell-based; details: dose 2-16 µM, DDE = dose-dependent effect
# MGC-803 [2] = experiment: Induction of apoptosis in human MGC-803 cells assessed as increase in cleaved caspase-9 expression at 1.25 to 10 uM by western blot analysis; format: functional, cell-based; details: dose 1.25-10 µM, DDE = dose-dependent effect
# MGC-803 [3] = experiment: Antiproliferative activity against human MGC-803 cells assessed as reduction in cell viability after 24 hrs by MTT assay; format: functional, cell-based; details: MGC-803, 24 h
# [4] = AUC(0 to t) in Sprague-Dawley rat at 50 mg/kg, ip measured upto 24 hrs by LC-MS analysis; format: ADME, organism-based; parameters: time < 24 hrs, dose 50 mg/kg, route ip; details: in vivo
# GES1 = experiment: Antiproliferative activity against human GES1 cells assessed as reduction in cell viability after 24 hrs by MTT assay; format: functional, cell-based; details: GES1, 24 h
# MGC-803 [5] = experiment: Inhibition of colony formation in human MGC-803 cells at 0.5 to 4 uM after 7 to 10 days by crystal violet staining based assay; format: functional, cell-based; details: dose 0.5-4 µM, time 7-10 day, DDE = dose-dependent effect
# MGC-803 [6] = experiment: Inhibition of PI3K/AKT/mTOR signalling pathway in human MGC-803 cells assessed as reduction in mTOR phosphorylation at 1.25 to 10 uM by western blot analysis; format: cell-based; details: dose 1.25-10 µM, DDE = dose-dependent effect
# HGC-27 [7] = experiment: Induction of ROS generation in human HGC-27 cells at 2 to 16 uM by DCFH-DA staining based fluorescence microscopic analysis; format: functional, cell-based; details: dose 2-16 µM, DDE = dose-dependent effect
# MGC-803 [8] = experiment: Inhibition of cell migration in human MGC-803 cells assessed as reduction in migration at 0.5 to 4 uM for 24 hrs by transwell migration assay; format: functional, cell-based; details: dose 0.5-4 µM, DDE = dose-dependent effect
# MGC-803 [9] = experiment: Induction of apoptosis in human MGC-803 cells assessed as increase in apoptotic cells at 1.25 to 10 uM after 48 hr by AnnexinV-FITC/PI staining based flow cytometric analysis (reference value: 2.71%); format: functional, cell-based; details: dose 1.25-10 µM, DDE = dose-dependent effect
# MGC-803 [10] = experiment: Antitumor activity against human MGC-803 cells xenografted in immunodeficient nude mouse assessed as increase in survival at 50 mg/kg, ip administered for 3 weeks; format: functional, organism-based
# HGC-27 [11] = experiment: Inhibition of cell migration in human HGC-27 cells assessed as reduction in migration at 1 to 8 uM for 24 hrs by wound healing assay; format: functional, cell-based; details: dose 1-8 µM, DDE = dose-dependent effect
# HGC-27 [12] = experiment: Antiproliferative activity against human HGC-27 cells assessed as EdU positive cells at 1 to 8 uM for 24 hrs by y EdU assay (reference value: 56.2%); format: functional; details: dose 1-8 µM
# HGC-27 [13] = experiment: Induction of apoptosis in human HGC-27 cells assessed as increase in cleaved caspase-9 expression at 2 to 16 uM by western blot analysis; format: functional, cell-based; details: dose 2-16 µM, DDE = dose-dependent effect
# MGC-803 [14] = experiment: Induction of mitochondrial membrane potential loss in human MGC-803 cells assessed as TMRE positive cells at 1.25 to 10 uM by TRME staining based flow cytometric analysis (reference value: 6.8%); format: functional, cell-based; details: dose 1.25-10 µM, DDE = dose-dependent effect
# MGC-803 [15] = experiment: Antitumor activity against human MGC-803 cells xenografted in immunodeficient nude mouse assessed as tumor weight at 50 mg/kg, ip administered for 3 weeks (reference value: 157.8 mg); format: functional
# HGC-27 [16] = experiment: Induction of apoptosis in human HGC-27 cells assessed as increase in cleaved caspase-3 expression at 2 to 16 uM by western blot analysis; format: functional, cell-based; details: dose 2-16 µM, DDE = dose-dependent effect
# MGC-803 [17] = experiment: Antitumor activity against human MGC-803 cells xenografted in immunodeficient nude mouse assessed as increase in TUNEL positive cells at 50 mg/kg, ip administered for 3 weeks by fluorescence microscopic analysis; format: functional, organism-based
# [18] = MRT(0 to t) in Sprague-Dawley rat at 50 mg/kg, ip measured upto 24 hrs by LC-MS analysis; format: ADME, organism-based; details: in vivo
# HGC-27 [19] = experiment: Inhibition of cell migration in human HGC-27 cells assessed as reduction in migration at 1 to 8 uM for 24 hrs by transwell migration assay; format: functional, cell-based; details: dose 1-8 µM, DDE = dose-dependent effect
# MGC-803 [20] = experiment: Induction of apoptosis in human MGC-803 cells assessed as decrease in cytochrome C expression at 1.25 to 10 uM by western blot analysis; format: functional, cell-based; details: dose 1.25-10 µM, DDE = dose-dependent effect
# HGC-27 [21] = experiment: Antiproliferative activity against human HGC-27 cells assessed as reduction in cell viability after 24 hrs by MTT assay; format: functional, cell-based; details: HGC-27, 24 h
# MGC-803 [22] = experiment: Induction of cell cycle arrest in human MGC-803 cells assessed as cells accumulation at G2/M phase at 1.25 to 10 uM after 48 hrs by propidium iodide staining based flow cytometric analysis(reference value: 13.1%); format: functional; details: dose 1.25-10 µM
# HGC-27 [23] = experiment: Inhibition of cell invasion in human HGC-27 cells assessed as reduction in invasion at 1 to 8 uM for 24 hrs by transwell invasion assay; format: functional, cell-based; details: dose 1-8 µM, DDE = dose-dependent effect
# [24] = Toxicity in immunodeficient nude mouse xenografted with human MGC-803 cells assessed as reduction in body weight at 50 mg/kg, ip administered for 3 weeks relative to control; format: organism-based; details: in vivo, 504 h
# HGC-27 [25] = experiment: Inhibition of PI3K/AKT/mTOR signalling pathway in human HGC-27 cells assessed as reduction in AKT phosphorylation at 2 to 16 uM by western blot analysis; format: cell-based; details: dose 2-16 µM, DDE = dose-dependent effect
# [26] = Cmax in Sprague-Dawley rat at 50 mg/kg, ip measured upto 24 hrs by LC-MS analysis; format: ADME, organism-based; parameters: time < 24 hrs, dose 50 mg/kg, route ip; details: in vivo
# HGC-27 [27] = experiment: Induction of apoptosis in human HGC-27 cells assessed as decrease in cytochrome C expression at 2 to 16 uM by western blot analysis; format: functional, cell-based; details: dose 2-16 µM, DDE = dose-dependent effect
# MGC-803 [28] = experiment: Antiproliferative activity against human MGC-803 cells assessed as EdU positive cells at 0.5 to 4 uM for 24 hrs by y EdU assay (reference value: 65.2%); format: functional; details: dose 0.5-4 µM
# MGC-803 [29] = experiment: Induction of apoptosis in human MGC-803 cells assessed as increase in Bax expression at 1.25 to 10 uM by western blot analysis; format: functional, cell-based; details: dose 1.25-10 µM, DDE = dose-dependent effect
# HGC-27 [30] = experiment: Induction of mitochondrial membrane potential loss in human HGC-27 cells assessed as TMRE positive cells at 2 to 16 uM by TRME staining based flow cytometric analysis (reference value: 5.8%); format: functional, cell-based; details: dose 2-16 µM, DDE = dose-dependent effect
# MGC-803 [31] = experiment: Induction of ROS generation in human MGC-803 cells at 1.25 to 10 uM by DCFH-DA staining based fluorescence microscopic analysis; format: functional, cell-based; details: dose 1.25-10 µM, DDE = dose-dependent effect
# MGC-803 [32] = experiment: Inhibition of PI3K/AKT/mTOR signalling pathway in human MGC-803 cells assessed as reduction in PI3K phosphorylation at 1.25 to 10 uM by western blot analysis; format: cell-based; details: dose 1.25-10 µM, DDE = dose-dependent effect
# HGC-27 [33] = experiment: Induction of cell cycle arrest in human HGC-27 cells assessed as cells accumulation at G2/M phase at 2 to 16 uM after 48 hrs by propidium iodide staining based flow cytometric analysis (reference value: 5.3%); format: functional; details: dose 2-16 µM
# HGC-27 [34] = experiment: Induction of apoptosis in human HGC-27 cells assessed as increase in twin-kiling cell nuclei at 2 to 16 uM by Hoechst 33342 staining based fluorescent microscopic analysis; format: functional; details: dose 2-16 µM
# MGC-803 [35] = experiment: Inhibition of cell migration in human MGC-803 cells assessed as reduction in migration at 0.5 to 4 uM for 24 hrs by wound healing assay; format: functional, cell-based; details: dose 0.5-4 µM, DDE = dose-dependent effect
smiles,measurement,setting,value
Oc1c(Cc2nccc3cc4c(cc23)OCO4)ccc2c1OCO2,Activity,HGC-27 [1],Dde
same,Activity,MGC-803 [2],Dde
same,IC50,MGC-803 [3],5.1 µM
same,AUC(0-t) at 24 h,[4],29500 ng·h/mL
same,IC50,GES1,98.4 µM
same,inhibition,MGC-803 [5],Dde
same,inhibition,MGC-803 [6],Dde
same,Activity,HGC-27 [7],Dde
same,inhibition,MGC-803 [8],Dde
same,Activity,MGC-803 [9],Dde
same,Activity,MGC-803 [10],Active
same,inhibition,HGC-27 [11],Dde
same,Activity,HGC-27 [12],20.8%
same,Activity,HGC-27 [13],Dde
same,Activity,MGC-803 [14],Dde
same,Activity,MGC-803 [15],176.2 mg
same,Activity,HGC-27 [16],Dde
same,Activity,MGC-803 [17],Active
same,MRT last at 24 h,[18],3.3 h
same,inhibition,HGC-27 [19],Dde
same,Activity,MGC-803 [20],Dde
same,IC50,HGC-27 [21],7.6 µM
same,Activity,MGC-803 [22],54.4%
same,inhibition,HGC-27 [23],Dde
same,Activity,[24],Non-Toxic
same,inhibition,HGC-27 [25],Dde
same,Cmax,[26],8900 ng/mL
same,Activity,HGC-27 [27],Dde
same,Activity,MGC-803 [28],19.9%
same,Activity,MGC-803 [29],Dde
same,Activity,HGC-27 [30],Dde
same,Activity,MGC-803 [31],Dde
same,inhibition,MGC-803 [32],Dde
same,Activity,HGC-27 [33],51.2%
same,Activity,HGC-27 [34],41.1%
same,Activity,HGC-27 [34]; DDE = dose-dependent effect,Dde
same,inhibition,MGC-803 [35],Dde

# Reference: ChEMBL document CHEMBL5143625, “Isolation, synthesis and bioactivity evaluation of isoquinoline alkaloids from Corydalis hendersonii Hemsl. against gastric cancer in vitro and in vivo” (Bioorg Med Chem, 2022)
